Measured values reported in ChEMBL document CHEMBL5291721, “A preclinical secondary pharmacology resource illuminates target-adverse drug reaction associations of marketed drugs” (Nat Commun, 2023).

Key:
[1] = target: T1, Muscarinic acetylcholine receptor M1 (Homo sapiens, UniProt P11229)
T1 sequence (P11229 whole entry): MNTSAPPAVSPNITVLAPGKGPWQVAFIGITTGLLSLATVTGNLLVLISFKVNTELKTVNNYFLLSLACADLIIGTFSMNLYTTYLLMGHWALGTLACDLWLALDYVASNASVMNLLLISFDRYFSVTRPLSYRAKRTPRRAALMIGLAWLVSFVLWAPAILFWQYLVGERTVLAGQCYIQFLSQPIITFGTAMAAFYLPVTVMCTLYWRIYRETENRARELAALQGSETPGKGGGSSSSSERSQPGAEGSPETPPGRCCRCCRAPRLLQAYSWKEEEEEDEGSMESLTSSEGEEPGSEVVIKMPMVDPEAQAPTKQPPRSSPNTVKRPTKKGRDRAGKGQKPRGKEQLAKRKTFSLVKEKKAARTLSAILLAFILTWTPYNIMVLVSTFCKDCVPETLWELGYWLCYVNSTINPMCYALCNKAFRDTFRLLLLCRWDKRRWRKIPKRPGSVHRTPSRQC

[2] = target: T2, Endothelin receptor type B (Homo sapiens, UniProt P24530)
T2 sequence (P24530 whole entry): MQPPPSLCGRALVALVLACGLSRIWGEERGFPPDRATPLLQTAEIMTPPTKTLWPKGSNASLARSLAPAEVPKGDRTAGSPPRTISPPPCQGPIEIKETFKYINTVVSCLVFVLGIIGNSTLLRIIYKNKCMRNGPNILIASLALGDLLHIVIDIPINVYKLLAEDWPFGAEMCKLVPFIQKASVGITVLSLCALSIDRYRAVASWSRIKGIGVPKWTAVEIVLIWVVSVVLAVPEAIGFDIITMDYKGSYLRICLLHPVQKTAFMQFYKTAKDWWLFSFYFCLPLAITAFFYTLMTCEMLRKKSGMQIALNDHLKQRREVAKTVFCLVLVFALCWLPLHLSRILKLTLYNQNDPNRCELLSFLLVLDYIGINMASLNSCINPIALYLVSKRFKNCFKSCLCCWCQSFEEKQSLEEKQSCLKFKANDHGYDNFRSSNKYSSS

[3] = target: Beta-3 adrenergic receptor (Homo sapiens, UniProt P13945)
Sequence of Beta-3 adrenergic receptor (P13945 whole entry): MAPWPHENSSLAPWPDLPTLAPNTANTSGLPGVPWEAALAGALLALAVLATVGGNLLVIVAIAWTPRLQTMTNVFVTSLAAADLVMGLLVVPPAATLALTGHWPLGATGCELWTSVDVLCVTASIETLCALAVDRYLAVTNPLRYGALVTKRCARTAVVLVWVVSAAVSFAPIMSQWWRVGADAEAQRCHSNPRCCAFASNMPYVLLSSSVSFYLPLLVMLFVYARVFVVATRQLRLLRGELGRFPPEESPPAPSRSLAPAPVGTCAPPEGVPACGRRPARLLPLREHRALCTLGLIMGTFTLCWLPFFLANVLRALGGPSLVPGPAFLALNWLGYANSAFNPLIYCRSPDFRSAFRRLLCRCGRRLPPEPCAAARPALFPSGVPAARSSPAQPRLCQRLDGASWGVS

Androgen receptor [4] = target: T3, Androgen receptor (Rattus norvegicus, UniProt P15207)
T3 sequence (P15207 whole entry): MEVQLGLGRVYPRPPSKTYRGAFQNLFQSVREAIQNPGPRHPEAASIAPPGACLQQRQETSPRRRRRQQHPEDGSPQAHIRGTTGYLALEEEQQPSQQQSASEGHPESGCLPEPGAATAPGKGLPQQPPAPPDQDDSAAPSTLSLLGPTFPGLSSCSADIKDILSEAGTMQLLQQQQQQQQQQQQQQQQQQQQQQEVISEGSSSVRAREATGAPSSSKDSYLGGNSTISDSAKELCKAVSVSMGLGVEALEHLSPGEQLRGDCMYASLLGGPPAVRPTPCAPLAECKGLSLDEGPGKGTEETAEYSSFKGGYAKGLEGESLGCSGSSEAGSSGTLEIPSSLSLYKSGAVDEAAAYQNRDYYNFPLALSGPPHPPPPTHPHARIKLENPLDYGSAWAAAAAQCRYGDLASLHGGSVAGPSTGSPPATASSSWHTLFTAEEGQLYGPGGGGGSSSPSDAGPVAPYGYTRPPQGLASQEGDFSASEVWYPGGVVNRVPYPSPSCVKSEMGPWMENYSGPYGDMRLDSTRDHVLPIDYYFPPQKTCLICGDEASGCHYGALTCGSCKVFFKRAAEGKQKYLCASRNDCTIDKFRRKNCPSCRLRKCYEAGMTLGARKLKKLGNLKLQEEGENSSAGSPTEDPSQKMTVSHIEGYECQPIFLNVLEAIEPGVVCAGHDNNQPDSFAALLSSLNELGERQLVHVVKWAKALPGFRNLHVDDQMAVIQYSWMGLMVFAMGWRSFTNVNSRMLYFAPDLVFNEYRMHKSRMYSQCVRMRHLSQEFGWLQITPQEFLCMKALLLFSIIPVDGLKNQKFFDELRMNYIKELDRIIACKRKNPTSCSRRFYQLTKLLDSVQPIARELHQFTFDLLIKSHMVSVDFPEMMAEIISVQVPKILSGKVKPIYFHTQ

Estrogen receptor beta = Estrogen receptor beta (Homo sapiens, UniProt Q92731)
Sequence of Estrogen receptor beta (Q92731 whole entry): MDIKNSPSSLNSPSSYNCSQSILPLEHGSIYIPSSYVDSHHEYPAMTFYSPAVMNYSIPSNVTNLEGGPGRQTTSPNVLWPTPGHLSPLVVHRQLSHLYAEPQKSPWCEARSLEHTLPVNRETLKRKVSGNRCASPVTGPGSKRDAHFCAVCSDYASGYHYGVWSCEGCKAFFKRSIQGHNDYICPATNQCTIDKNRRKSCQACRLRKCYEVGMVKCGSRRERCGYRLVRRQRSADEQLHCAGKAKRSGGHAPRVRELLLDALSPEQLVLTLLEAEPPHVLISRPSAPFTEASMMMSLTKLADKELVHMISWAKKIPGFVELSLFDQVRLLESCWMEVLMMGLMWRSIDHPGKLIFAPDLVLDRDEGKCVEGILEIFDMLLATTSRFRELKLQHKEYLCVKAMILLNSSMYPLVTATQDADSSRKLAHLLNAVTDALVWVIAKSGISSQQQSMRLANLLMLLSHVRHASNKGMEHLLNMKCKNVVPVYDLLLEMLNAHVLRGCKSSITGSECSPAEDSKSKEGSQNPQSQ

[5] = target: T4, 5-hydroxytryptamine receptor 1A (Homo sapiens, UniProt P08908)
T4 sequence (P08908 whole entry): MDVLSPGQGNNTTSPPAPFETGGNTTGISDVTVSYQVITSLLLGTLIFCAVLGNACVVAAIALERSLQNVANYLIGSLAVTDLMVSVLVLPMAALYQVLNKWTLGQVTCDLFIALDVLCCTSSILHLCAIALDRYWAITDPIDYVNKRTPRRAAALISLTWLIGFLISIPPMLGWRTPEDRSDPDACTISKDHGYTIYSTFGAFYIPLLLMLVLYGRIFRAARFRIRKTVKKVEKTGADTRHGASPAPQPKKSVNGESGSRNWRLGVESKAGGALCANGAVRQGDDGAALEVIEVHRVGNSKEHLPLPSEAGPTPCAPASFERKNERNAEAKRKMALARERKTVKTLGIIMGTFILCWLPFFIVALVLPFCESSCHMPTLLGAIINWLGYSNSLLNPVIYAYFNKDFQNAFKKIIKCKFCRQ

[6] = target: Voltage-dependent N-type calcium channel subunit alpha-1B (Rattus norvegicus, UniProt Q02294); assay type: functional
Sequence of Voltage-dependent N-type calcium channel subunit alpha-1B (Q02294 whole entry): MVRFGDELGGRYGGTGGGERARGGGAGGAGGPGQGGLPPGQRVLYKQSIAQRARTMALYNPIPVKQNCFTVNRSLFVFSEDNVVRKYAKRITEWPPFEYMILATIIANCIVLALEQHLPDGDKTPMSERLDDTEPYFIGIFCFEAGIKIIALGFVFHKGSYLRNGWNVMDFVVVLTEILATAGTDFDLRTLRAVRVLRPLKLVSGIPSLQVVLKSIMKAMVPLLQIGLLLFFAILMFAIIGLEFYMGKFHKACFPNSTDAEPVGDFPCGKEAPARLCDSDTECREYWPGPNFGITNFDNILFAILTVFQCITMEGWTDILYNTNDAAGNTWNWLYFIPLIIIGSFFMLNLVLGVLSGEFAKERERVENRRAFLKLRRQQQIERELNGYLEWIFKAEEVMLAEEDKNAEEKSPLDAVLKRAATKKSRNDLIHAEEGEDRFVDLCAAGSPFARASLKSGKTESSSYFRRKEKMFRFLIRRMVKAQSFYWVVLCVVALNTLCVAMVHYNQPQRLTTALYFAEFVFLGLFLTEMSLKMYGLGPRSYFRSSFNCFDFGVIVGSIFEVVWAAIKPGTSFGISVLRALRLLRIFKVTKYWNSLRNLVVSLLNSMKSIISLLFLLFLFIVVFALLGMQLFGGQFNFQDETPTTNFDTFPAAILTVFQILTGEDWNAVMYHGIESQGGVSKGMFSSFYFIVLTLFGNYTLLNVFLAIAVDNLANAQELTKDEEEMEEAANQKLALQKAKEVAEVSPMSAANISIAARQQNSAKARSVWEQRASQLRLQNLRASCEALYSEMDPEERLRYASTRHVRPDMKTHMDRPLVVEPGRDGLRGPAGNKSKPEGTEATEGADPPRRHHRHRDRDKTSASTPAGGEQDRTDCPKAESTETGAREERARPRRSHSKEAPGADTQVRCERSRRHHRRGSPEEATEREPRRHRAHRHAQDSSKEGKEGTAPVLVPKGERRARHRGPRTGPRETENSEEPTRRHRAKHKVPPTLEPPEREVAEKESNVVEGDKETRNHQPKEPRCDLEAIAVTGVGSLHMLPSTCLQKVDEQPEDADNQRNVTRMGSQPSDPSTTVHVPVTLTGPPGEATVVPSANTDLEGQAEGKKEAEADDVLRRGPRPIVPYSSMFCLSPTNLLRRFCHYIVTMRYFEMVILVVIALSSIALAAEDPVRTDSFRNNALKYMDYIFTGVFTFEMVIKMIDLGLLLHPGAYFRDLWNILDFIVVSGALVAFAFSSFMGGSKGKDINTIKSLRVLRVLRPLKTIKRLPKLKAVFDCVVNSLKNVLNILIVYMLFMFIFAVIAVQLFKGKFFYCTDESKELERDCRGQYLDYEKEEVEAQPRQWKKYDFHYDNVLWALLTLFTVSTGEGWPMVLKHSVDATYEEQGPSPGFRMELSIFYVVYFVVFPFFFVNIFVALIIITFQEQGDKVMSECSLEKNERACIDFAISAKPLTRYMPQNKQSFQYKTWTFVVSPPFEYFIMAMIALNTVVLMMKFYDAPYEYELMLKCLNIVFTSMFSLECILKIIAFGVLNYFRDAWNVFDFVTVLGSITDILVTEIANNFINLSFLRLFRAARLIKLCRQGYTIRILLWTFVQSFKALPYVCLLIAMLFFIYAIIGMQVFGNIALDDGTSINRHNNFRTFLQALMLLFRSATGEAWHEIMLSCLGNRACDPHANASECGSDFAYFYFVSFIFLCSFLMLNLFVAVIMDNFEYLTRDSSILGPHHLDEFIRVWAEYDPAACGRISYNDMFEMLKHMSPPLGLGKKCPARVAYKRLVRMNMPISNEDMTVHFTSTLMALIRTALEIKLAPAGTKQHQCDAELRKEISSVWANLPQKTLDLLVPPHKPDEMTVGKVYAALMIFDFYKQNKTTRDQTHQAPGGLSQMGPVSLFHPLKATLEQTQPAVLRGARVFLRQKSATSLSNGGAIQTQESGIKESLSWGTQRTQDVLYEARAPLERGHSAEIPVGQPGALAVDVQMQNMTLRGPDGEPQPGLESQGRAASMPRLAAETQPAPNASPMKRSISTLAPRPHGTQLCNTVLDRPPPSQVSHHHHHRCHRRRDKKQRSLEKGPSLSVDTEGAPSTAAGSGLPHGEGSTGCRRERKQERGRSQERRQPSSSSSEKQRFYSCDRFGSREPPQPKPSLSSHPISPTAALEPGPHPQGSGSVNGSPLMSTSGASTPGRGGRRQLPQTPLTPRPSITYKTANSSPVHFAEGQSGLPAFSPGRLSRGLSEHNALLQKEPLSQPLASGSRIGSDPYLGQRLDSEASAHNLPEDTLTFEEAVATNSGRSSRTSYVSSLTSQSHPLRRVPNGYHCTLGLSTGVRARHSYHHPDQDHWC

B1 bradykinin receptor = target: T5, B1 bradykinin receptor (Homo sapiens, UniProt P46663)
T5 sequence (P46663 whole entry): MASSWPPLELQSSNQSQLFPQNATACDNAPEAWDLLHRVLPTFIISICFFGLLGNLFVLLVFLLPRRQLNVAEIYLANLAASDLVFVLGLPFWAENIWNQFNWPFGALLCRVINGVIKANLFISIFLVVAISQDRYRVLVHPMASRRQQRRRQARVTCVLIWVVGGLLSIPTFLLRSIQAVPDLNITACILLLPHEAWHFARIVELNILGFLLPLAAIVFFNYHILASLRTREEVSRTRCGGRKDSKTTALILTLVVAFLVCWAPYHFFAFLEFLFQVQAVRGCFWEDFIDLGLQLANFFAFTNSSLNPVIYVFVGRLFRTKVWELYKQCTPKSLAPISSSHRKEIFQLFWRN

[7] = target: 5-hydroxytryptamine receptor 2B (Homo sapiens, UniProt P41595)
Sequence of 5-hydroxytryptamine receptor 2B (P41595 whole entry): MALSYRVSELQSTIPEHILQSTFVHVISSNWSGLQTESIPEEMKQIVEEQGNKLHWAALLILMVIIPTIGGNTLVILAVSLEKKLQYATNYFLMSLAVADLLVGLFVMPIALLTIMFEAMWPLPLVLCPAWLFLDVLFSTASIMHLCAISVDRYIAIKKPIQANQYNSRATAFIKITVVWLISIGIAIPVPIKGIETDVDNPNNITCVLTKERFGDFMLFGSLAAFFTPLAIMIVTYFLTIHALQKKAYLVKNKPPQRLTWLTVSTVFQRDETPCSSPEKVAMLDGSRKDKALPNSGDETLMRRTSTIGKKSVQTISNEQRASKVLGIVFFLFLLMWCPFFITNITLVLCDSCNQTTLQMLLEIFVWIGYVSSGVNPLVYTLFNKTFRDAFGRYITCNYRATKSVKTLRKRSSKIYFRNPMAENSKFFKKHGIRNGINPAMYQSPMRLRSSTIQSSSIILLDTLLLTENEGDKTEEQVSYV

[8] = target: Neurotensin receptor type 1 (Homo sapiens, UniProt P30989)
Sequence of Neurotensin receptor type 1 (P30989 whole entry): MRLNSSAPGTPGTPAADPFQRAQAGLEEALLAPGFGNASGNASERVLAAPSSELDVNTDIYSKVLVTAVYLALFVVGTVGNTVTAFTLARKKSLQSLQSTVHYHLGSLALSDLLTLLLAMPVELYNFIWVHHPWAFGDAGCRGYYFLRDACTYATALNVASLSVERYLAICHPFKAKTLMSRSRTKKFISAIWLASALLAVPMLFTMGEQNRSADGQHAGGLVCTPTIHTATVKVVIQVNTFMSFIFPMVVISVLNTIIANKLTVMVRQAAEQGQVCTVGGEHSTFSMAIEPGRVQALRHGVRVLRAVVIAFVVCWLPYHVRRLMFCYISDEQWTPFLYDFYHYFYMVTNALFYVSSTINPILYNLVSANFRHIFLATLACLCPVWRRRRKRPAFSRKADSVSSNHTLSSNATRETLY

[9] = target: 5-hydroxytryptamine receptor 2A (Homo sapiens, UniProt P28223)
Sequence of 5-hydroxytryptamine receptor 2A (P28223 whole entry): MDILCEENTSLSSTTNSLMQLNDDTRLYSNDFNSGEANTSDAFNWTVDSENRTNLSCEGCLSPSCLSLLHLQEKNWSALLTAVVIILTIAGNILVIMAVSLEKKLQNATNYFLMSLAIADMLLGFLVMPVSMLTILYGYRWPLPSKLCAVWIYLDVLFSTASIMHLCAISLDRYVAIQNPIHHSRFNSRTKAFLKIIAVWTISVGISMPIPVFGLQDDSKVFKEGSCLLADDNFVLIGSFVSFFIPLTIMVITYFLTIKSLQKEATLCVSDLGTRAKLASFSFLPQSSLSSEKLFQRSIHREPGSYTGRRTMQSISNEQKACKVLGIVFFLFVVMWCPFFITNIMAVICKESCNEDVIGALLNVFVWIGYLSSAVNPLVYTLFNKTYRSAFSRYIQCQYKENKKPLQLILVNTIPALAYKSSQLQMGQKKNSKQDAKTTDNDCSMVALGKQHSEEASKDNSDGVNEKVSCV

Androgen receptor [10] = target: T3, Androgen receptor; assay type: functional
Further: assay procedure not described here.

Compound | AC50 [2] [µM] | AC50 [3] [µM] | AC50 [5] [µM] | AC50 [6] [µM] | AC50 (B1 bradykinin receptor) [µM] | AC50 [7] [µM] | AC50 [8] [µM] | other results
CCCCCCCC(=O)N[C@H](CN1CCCC1)[C@H](O)c1ccc2c(c1)OCCO2 | – | – | – | – | – | – | – | AC50 [1]: > 30 µM
C[C@]1(COc2ccc(N3CCC(Oc4ccc(OC(F)(F)F)cc4)CC3)cc2)Cn2cc([N+](=O)[O-])nc2O1 | > 30 | > 30 | > 10 | > 10 | > 30 | > 10 | > 30 | AC50 (Androgen receptor [4]): > 30 µM; AC50 (Estrogen receptor beta): > 30 µM; AC50 [9]: > 10 µM
C[C@]12CC[C@H](O)CC1=CC[C@@H]1[C@@H]2CC[C@]2(C)C(c3cccnc3)=CC[C@@H]12 [ABIRATERONE] | – | – | – | – | – | – | – | AC50 (Androgen receptor [4]): > 30 µM; AC50 [9]: > 10 µM
CC(=O)OCC[N+](C)(C)C [ACETYLCHOLINE] | > 30 | > 30 | > 10 | > 10 | > 30 | > 10 | > 30 | AC50 (Estrogen receptor beta): > 30 µM; AC50 [9]: > 10 µM
O=C(Nc1nc(-c2cc(Cl)cs2)c(N2CCN(C3CCCCC3)CC2)s1)c1cnc(N2CCC(C(=O)O)CC2)c(Cl)c1 [AVATROMBOPAG] | > 10 | – | > 10 | > 10 | > 10 | > 10 | > 10 | AC50 [1]: > 30 µM; AC50 [9]: > 10 µM
CN(C)C(=O)Oc1cc(OC(=O)N(C)C)cc(C(O)CNC(C)(C)C)c1 (stereo not drawn) [BAMBUTEROL] | – | – | – | – | – | – | – | AC50 (Androgen receptor [10]): > 30 µM
C[C@H]1C[C@H]2[C@@H]3CCC4=CC(=O)C=C[C@]4(C)[C@@]3(Cl)[C@@H](O)C[C@]2(C)[C@@]1(O)C(=O)CO [BECLOMETHASONE] | > 30 | > 30 | > 10 | > 10 | > 30 | > 10 | > 30 | –
Oc1c(I)cc(Cl)c2cccnc12 [CLIOQUINOL] | – | – | – | – | – | – | – | AC50 [1]: > 30 µM
COc1ccc2c(c1)[C@]13CCCC[C@@H]1[C@H](C2)N(C)CC3 [DEXTROMETHORPHAN] | > 30 | > 30 | > 10 | > 10 | > 30 | 5.8 | > 30 | AC50 (Estrogen receptor beta): > 30 µM
O=c1oc2ccccc2c(O)c1Cc1c(O)c2ccccc2oc1=O [DICUMAROL] | – | – | – | – | – | – | – | AC50 (Androgen receptor [4]): > 10 µM
CCn1cc(C(=O)O)c(=O)c2cc(F)c(N3CCNCC3)nc21 [ENOXACIN] | > 30 | > 30 | > 10 | > 10 | > 30 | > 10 | > 30 | AC50 (Estrogen receptor beta): > 30 µM
O=C(O)CSCC(=O)NC1CCSC1=O (stereo not drawn) [ERDOSTEINE] | – | – | – | – | – | – | – | AC50 (Androgen receptor [10]): > 30 µM
CCC(=O)O[C@@H]1CC(=O)O[C@H](C)C/C=C/C=C/[C@H](OC(C)=O)[C@H](C)C[C@H](CC=O)[C@H](O[C@@H]2O[C@H](C)[C@@H](O[C@H]3C[C@@](C)(OC(C)=O)[C@@H](OC(=O)CC)[C@H](C)O3)[C@H](N(C)C)[C@H]2O)[C@H]1OC [MIOCAMYCIN] | – | – | – | – | – | – | – | AC50 [1]: > 30 µM
C1CNCCN1 [PIPERAZINE] | – | – | – | – | – | – | – | AC50 [1]: > 30 µM
COCCCOc1ccnc(C[S+]([O-])c2nc3ccccc3[nH]2)c1C (stereo not drawn) [RABEPRAZOLE] | > 30 | > 30 | > 10 | > 10 | > 30 | > 10 | > 30 | AC50 (Estrogen receptor beta): > 30 µM
CC(C)=CCOc1ccc(/C=C/C(=O)c2ccc(OCC=C(C)C)cc2OCC(=O)O)cc1 [SOFALCONE] | – | – | – | – | – | – | – | AC50 (Androgen receptor [10]): 6.1 µM
O=C(CCCN1CCC2(CC1)C(=O)NCN2c1ccccc1)c1ccc(F)cc1 [SPIPERONE] | – | – | – | – | – | 0.66 | – | –
CN(C)c1cc(NC(=O)CNC(C)(C)C)c(O)c2c1C[C@H]1C[C@H]3[C@H](N(C)C)C(O)=C(C(N)=O)C(=O)[C@@]3(O)C(O)=C1C2=O [TIGECYCLINE] | – | – | – | – | – | – | – | AC50 (Androgen receptor [4]): > 30 µM
OCCN1CCN(CC/C=C2/c3ccccc3Sc3ccc(Cl)cc32)CC1 [ZUCLOPENTHIXOL] | – | – | – | – | – | 0.0144 | – | AC50 (Androgen receptor [4]): > 10 µM; AC50 [9]: 0.0046 µM
